How the values of series [1] were obtained: Arterial blood and plasma samples were measured using the well-counter. The animals were positioned with a field of view as in the [^18F]FE-DTBZ-d4 dynamic scan.
Tissue volumes of interest [VOIs] and regions of interest [ROIs] were delineated on CT images or partially summed PET images. The kinetic uptake in the cortical bone tissue for all three tracers was assessed by generating isocontour VOIs over the lumbar vertrebral bodies in CT images.
The HTR is given in Equation 2, where φ1, φ2, θ1, and θ2 are macro-parameters determined by the rate constants K1, k2, k3, and k4 [18]. VT and VS denote the total and specific binding distribution volumes, respectively:
The [^18F]F^- HTR in the cortical bone was determined by the kinetic modeling module PKIN for PMOD.

A short description of series [2]: Estimation of tracer defluorination by kinetic modeling of cortical bone uptake. It counts as in vivo, piglets. The conditions noted are these: for half-life: male, Swedish landrace, pig, intravenous; for half-life / kdefluorination, average / kdefluorination: plasma; for half-life / t1/2 (defluorination) / kdefluorination, average / kdefluorination: piglets. The text has this:
Since the studies on [^18F]FE-DTBZ had been performed previously without metabolite correction analysis, we decided to quantify the defluorination retroactively by kinetic modeling of the cortical bone uptake. When modeling the PK/PD of a PET tracer, we generally study the relationship between three different functions (Equation 1) which we can express in a vector form; the input function [Cinput], the transfer function [HTR], and the output function [Ctissue] were defined as follows: […]
The gradual accumulation of radioactivity in the cortical bone tissue starting around 5 min after administration was assumed to consist entirely of [^18F]F^- uptake. It is difficult to delineate the cortical bone structures in the spinal column due to its relative small thickness even if isocontour thresholding is used. Partial volume effects [PVEs] will still yield kinetics containing contributions from both the cortical bone and bone marrow. […] To reduce the contribution from non-cortical sources, VOIs over the bone marrow were drawn, and the associated kinetics was subtracted from the cortical isocontour VOIs. The resulting kinetics after this operation was assessed to describe [^18F]F^- PK/PD in the cortical bone tissue and used as the output curve Ctissue for the quantification of tracer defluorination.
The Cinput of [^18F]F^- is in this specific case not created by an instantaneous bolus, but rather from a gradual reaction where [^18F]FE-DTBZ or [^18F]FE-DTBZ-d4 is the substrate and [^18F]F^- is the product. The rate of defluorination can then be expressed in a single parameter kdefluorination if we assume that the reaction is concentration-dependent and unchanging over time (or during the time frame investigated here). Cin is then uniquely determined from the arterial blood plasma curve [Cp] and kdefluorination (Equation 3): […]
The defluorination rate constant in plasma can then be determined by minimizing Equation 4: […]
All optimization was performed using MatLab 7.8.0 (MathWorks, Inc., Natick, MA, USA).

Series [3] can be described thus: Quantification of pancreatic uptake by one-tissue compartment model. It counts as in vivo, piglets. The following applies: pancreas; for Kp: male, Swedish landrace, pig, intravenous; for K1, average / k2, average / K1 / k2: defluorination-corrected plasma input. The text has this: A one-tissue compartment model was used to estimate the compound parameter VT as well as the tissue specific rate constants K1 to k2 in the pancreas. The Cp was used as an input function, corrected for tracer metabolism by defluorination parameter kdefluorination determined from cortical bone uptake. The kinetic parameters were estimated by the PMOD modeling module PKIN.

In series [4] the target is T1, VMAT2 (Homo sapiens, UniProt Q05940).
T1 construct: tissue preparations were isolated from human pancreata and homogenized; from tissue; host or cells: human pancreas: endocrine (80% to 85% islets) and exocrine tissue homogenates
Also on record: method as in PMID 20346875. The following applies: human islet homogenate, described previously; cited from earlier work.

Series [5] deals with VMAT2. Set-up: method as in PMID 20346875. The following applies: cited from earlier work.
On the set-up of series [6]: method as in PMID 20346875. The conditions noted are these: piglet model, PET/CT 90 min after tracer administration; cited from earlier work.
Series [7] deals with VMAT2. The series can be described thus: In vitro homogenate saturation binding (human endocrine and exocrine pancreatic tissue homogenates). The conditions noted are these: human islet vs exocrine homogenates. Here is the method: Endocrine (n = 4, 80% to 85% islets) or exocrine (n = 4) tissue preparations were isolated from human pancreata and homogenized in 50 mM tris(hydroxymethyl)aminomethane [TRIS] by a Polytron PT3000 homogenator (Kinematica AG, Littau, Switzerland). The tissue homogenates (0.5 to 6 mg/mL) were incubated in 1 mL of 50 mM TRIS with different concentrations of tracer around an expected dissociation constant Kd of 3 nM. The non-displaceable binding was determined by addition of 10 to 20 μM tetrabenazine (BIOTREND Chemikalien GmbH, Cologne, Germany).
All samples were incubated at RT for 60 min to reach an equilibrium and then moved onto a 1.2 μm Whatman filter (Brandel, Gaithersburg, MD, USA; pretreated with 0.05% polyethylenimine for > 1 h) by a C-48 cell harvester (Brandel, Gaithersburg, MD, USA). The filter components associated to each group were pooled and measured in a well counter (Uppsala Imanet AB, GE Healthcare, Uppsala, Sweden). Tissue samples and references were prepared in triplicates, and filter binding controls, in duplicates.
Tissue protein content (in milligram protein per sample) was assessed by a Bio-Rad Protein Assay (Bio-Rad, Hercules, CA, USA), and absorbance was measured with an EL808 microplate reader (BioTek, Winooski, VT, USA). The BP, defined as the ratio between the receptor density [Bmax] and dissociation constant [Kd], was determined by nonlinear regression.

Series [8] can be described thus: PET/CT biodistribution in piglets. It counts as in vivo. Here is the method:
Male Swedish landrace piglets (n = 4, 15 to 17 kg, 11 to 14 weeks old) were anesthetized by Zoletil forte (Virbac, Carros Cedex, France). The animals were intubated and placed on a ventilator, and the anesthesia was maintained by 2.5% sevofluran. Normoglycemia was confirmed by determining blood glucose content (plasma glucose concentration 4.4 to 7.6 mM). The animal experiments were approved by the local ethics committee for animal research and performed in accordance with local institutional and Swedish national rules and regulations.
The PET/CT studies were performed using a Discovery ST scanner (General Electric, Milwaukee, WI, USA). All scans were acquired in 2D mode and reconstructed by OSEM iterative algorithm. Four piglets were administered 3.4 to 16.3 MBq/kg [^18F]FE-DTBZ-d4 as an intravenous [i.v.] bolus, and the biodistribution as well as the kinetics of the tracer in the abdomen was studied with a dynamic sequence over 90 min (the head first, prone, 4 frames × 30 s, 3 × 1 min, 5 × 3 min and 14 × 5 min). Arterial blood samples were acquired during the first 90 min, and both the plasma- and whole blood volume-corrected tracer contents were measured using the well counter. A whole-body PET/CT examination was performed 100 to 120 min post-administration.
The data in this study was compared to previously published PK/PD porcine data on non-deuterated [^18F]-FE-DTBZ. For details on the methodologies used in this study, see Eriksson et al..
PET and CT images were analyzed by PMOD (PMOD Technologies Ltd., Zürich, Switzerland). Values are given as means ± standard error of the mean [SEM] unless otherwise stated, and statistics are based on Student's t test.

Series [9] can be described thus: Radiochemical stability of formulated product (analytical HPLC). It counts as physicochemical. The following applies: for up to 5 h. Here is the method: The radiochemical purity, identity, and stability of [^18F]FE-DTBZ-d4 were determined by analytical HPLC using a reverse-phase μBondapak column (C18, 3.9 Ø × 300 mm, 10 μm, Waters Corporation) with mobile phase CH3CN/10 mM H3PO4 (15:85) and a flow rate of 3 mL/min. The effluent was monitored with an UV absorbance detector (λ = 214 nm) coupled with a radioactive detector (β-flow, Beckman Coulter, Inc., Fullerton, CA, USA). The identity of [^18F]FE-DTBZ-d4 was confirmed by co-injection with the authentic nonradioactive FE-DTBZ-d4.

Setting [10] is: cortical spinal bone, average of 3 pigs.
Where [11] appears, read: cortical spinal bone, individual pigs.
Setting [12] is: cortical spinal bone, mean ± SEM as given in text.
Setting [13] is: average, read-out: t1/2 (defluorination), average.
[14] abbreviates: read-out: Half-life stability against defluorination.
Where [15] appears, read: individual experiments, [^18F]FE-DTBZ from retrospective analysis of earlier data.
Where [16] appears, read: mean ± SEM as given in text/footnote.

Where “and” joins values, the source holds several entries; their conditions need not be identical. Equal entries are not always repeated. Where two headings read alike, the source gives them in different places.

T1 sequence (Q05940 whole entry): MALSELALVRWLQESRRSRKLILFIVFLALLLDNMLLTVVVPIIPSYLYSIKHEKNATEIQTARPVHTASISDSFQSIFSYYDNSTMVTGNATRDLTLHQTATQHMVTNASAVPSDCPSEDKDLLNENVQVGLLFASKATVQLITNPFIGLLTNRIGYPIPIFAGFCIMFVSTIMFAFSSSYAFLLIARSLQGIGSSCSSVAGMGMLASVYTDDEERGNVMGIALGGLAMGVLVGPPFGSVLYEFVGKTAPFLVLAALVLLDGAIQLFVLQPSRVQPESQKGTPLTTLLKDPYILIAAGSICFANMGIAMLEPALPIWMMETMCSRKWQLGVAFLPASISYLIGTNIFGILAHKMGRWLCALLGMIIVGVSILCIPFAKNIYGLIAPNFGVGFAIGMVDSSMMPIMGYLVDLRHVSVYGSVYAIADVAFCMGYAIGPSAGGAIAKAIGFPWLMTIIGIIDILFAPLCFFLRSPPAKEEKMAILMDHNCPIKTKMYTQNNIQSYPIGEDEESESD

Turning to `[18FH]` [[^18F]F^-, Fluorine-18 fluoride], the “Plasma delay, average” value in [1] (cortical spinal bone model, average of 3 pigs) worked out at 25.67 s. The Plasma delay in series [1] (cortical spinal bone model, individual pigs) is 25.6 s and 23.5 s and 27.9 s. Moreover, in series [1] (setting [10]), the “K1, average” value is recorded as 0.57 (cc/min)/cc; the “VS, average” value came to 27.53 cc/cc; the “VS/VT, average” value is listed as 0.99; the “VT, average” value is 27.9 cc/cc. Moreover, in series [1] (setting [10]), the “k2, average” value was determined as 1.54 min⁻¹; the “k3, average” value amounted to 0.42 min⁻¹; the “k4, average” value was 0.0058 min⁻¹. Also, in series [1] (setting [11]), the K1 is 0.71 (cc/min)/cc and 0.44 (cc/min)/cc and 0.56 (cc/min)/cc; the “VS (specific binding distribution volume)” value was 35.9 cc/cc and 19.8 cc/cc and 26.9 cc/cc; the VS/VT was 0.99; the “VT (total distribution volume)” value was 36.4 cc/cc and 20.1 cc/cc and 27.2 cc/cc. In [1] (setting [11]), the k2 is 1.27 min⁻¹ and 1.78 min⁻¹ and 1.57 min⁻¹; the k3 is 0.39 min⁻¹ and 0.5 min⁻¹ and 0.38 min⁻¹; the k4 is 0.0061 min⁻¹ and 0.0062 min⁻¹ and 0.0051 min⁻¹. Moreover, in [1] (setting [12]), the k3 stood at 0.42 ± 0.04 min⁻¹ and the k4 was 0.0058 ± 0.0004 min⁻¹. Also, the “Signal coming from the nonspecific or free tracer” value in series [1] (cortical spinal bone, model prediction) is “less than 1%”.
With `COc1cc2c(cc1OCC[18F])CCN1CC(CC(C)C)C(O)CC21` (centres unmarked) [[^18F]FE-DTBZ], the half-life in series [2] (setting [13]) was 1.06 h; in series [2] (individual experiments, read-out: t1/2 (defluorination)), 0.77 h; in series [2] (setting [14]) it was above 1 h. In addition, the “t1/2 (defluorination)” value in series [2] (individual experiments) was 1.46 h and 0.952 h. Also, the “kdefluorination, average” value in series [2] (average) is 0.0002 s⁻¹. Besides, the kdefluorination in series [2] (setting [15]) is 0.00025 s⁻¹ and 0.000132 s⁻¹ and 0.0002023 s⁻¹; in [2] (setting [16]), 0.0002 ± 3.3e-05 s⁻¹. The Kp stood at 4.17 in [3] (average, read-out: VT, average) and 3.39 in series [3] (individual experiments, read-out: VT (total distribution volume, K1/k2)). Besides, the “K1, average” value in [3] (average) was 0.26 (cc/min)/cc. Moreover, in series [3] (average), the “k2, average” value turned out to be 0.064 min⁻¹. Further, the K1 in series [3] (individual experiments) was 0.27 (cc/min)/cc and 0.30 (cc/min)/cc and 0.20 (cc/min)/cc. Besides, in series [3] (individual experiments), the k2 is 0.08 min⁻¹ and 0.07 min⁻¹ and 0.04 min⁻¹. For the same molecule, the “VT (total distribution volume, K1/k2)” value in [3] (individual experiments) is 4.47 cc/cc and 4.65 cc/cc. Also, the BPislet on VMAT2 [4] is listed as 110.4 femtomoles per milligram protein per nanoMolar. The BPislet/BPexocrine ratio in the series with VMAT2 [5] (from previously described BP values) is 11.2. In the series on VMAT2 [5] (human exocrine homogenate, described previously), the BPexocrine is listed as 9.8 femtomoles per milligram protein per nanoMolar. Moreover, the “Spinal column uptake at the end of the experiments” value in series [6] is listed as 3.1 SUV.
With `COc1cc2c(cc1OCCF)CCN1C[C@@H](CC(C)C)[C@H](O)C[C@H]21` [[^18F]FE-DTBZ-d4, (2R,3R,11bR)-9-(2-fluoroethoxy)-3-isobutyl-10-methoxy-2,3,4,6,7,11b-hexahydro-1H-pyrido[2,1-a]isoquinolin-2-ol], the BPislet/BPexocrine ratio in the series on VMAT2 [7] was found to be 16. Moreover, in series [8] (i.v. bolus), the “Bile tracer and metabolites” value was above 10 SUV. Also, the “Pancreas uptake after 90 min” value in series [8] (i.v. bolus, 90 min) was determined as 1.8 SUV. The “Pancreas average peak uptake” value in series [8] (i.v. bolus, shortly after administration) is 2.64 SUV. The “Spinal column vertebrae VOIs uptake” value in series [8] (within the initial minutes, no further accumulation) was 1.4 SUV. Also, the half-life in series [2] (setting [13]) is 7.23 h. Also, the half-life in series [2] (setting [14]) is above 6 h. In addition, in series [2] (individual experiments), the “t1/2 (defluorination)” value was 7.312 h and 27.507 h and 3.292 h and 13.13 h. In addition, the “kdefluorination, average” value in [2] (average) is 2.67e-05 s⁻¹. For the same molecule, in [2] (setting [15]), the kdefluorination is 2.67e-05 s⁻¹ and 7e-06 s⁻¹ and 5.83e-05 s⁻¹ and 1.47e-05 s⁻¹. Further, the kdefluorination in series [2] (setting [16]) is 2.67e-05 ± 1.2e-05 s⁻¹. Besides, the “Increase in half-life stability” value in [2] (vs non-deuterated analogue) is “six fold increase”. In addition, in series [3] (average, read-out: VT, average), the Kp came out at 3.69. In series [3] (average), the “K1, average” value is given as 0.81 (cc/min)/cc and the “k2, average” value is 0.26 min⁻¹. In addition, in series [3] (individual experiments), the K1 was 0.65 (cc/min)/cc and 1.09 (cc/min)/cc and 1.13 (cc/min)/cc and 0.36 (cc/min)/cc; the k2 was 0.32 min⁻¹ and 0.25 min⁻¹ and 0.37 min⁻¹ and 0.10 min⁻¹; the “VT (total distribution volume, K1/k2)” value is 2.05 cc/cc and 4.39 cc/cc and 3.06 cc/cc and 3.64 cc/cc. The “Radiochemical purity of the formulated product (stability)” value in series [9] was above 98%.

Source of the values: PMC3284452, “Decreased defluorination using the novel beta-cell imaging agent [^18F]FE-DTBZ-d4 in pigs examined by PET” (EJNMMI Research, 2011).
